Laboratory results reported in patent publication US10550091B2, “1,4,5-substituted 1,2,3-triazole analogues as antagonists of the pregnane X receptor” (ST. JUDE CHILDREN'S RESEARCH HOSPITAL, priority 2016, dated 2020).

What was measured:
[1] = tested on: CYP3A4 promoter reporter; experiment: CYP3A4 promoter reporter activity in hPXR-CYP3A4-luc reporter mice (bioluminescence imaging); format: in vivo, mouse; conditions: RIF 10 mg/kg plus test compound 150 mg/kg every 24 h for 2 days; imaging 10 h after last treatment
Protocol: Individual mouse received 3 rounds of sequential treatment of vehicle control (Vehicle), RIF (10 mg/kg) and RIF (10 mg/kg) plus the test compound (150 mg/kg) every 24 h for 2 days, respectively, with a washout period of 72-hour between two rounds of treatment. The luciferase activity in these reporter mice was recorded by bioluminescence imaging 10 h after the last treatment of each round, and the induction of CYP3A4 promoter reporter activity was calculated as described in Examples. Each data point represents the induction of CYP3A4 promoter reporter activity by the treatment in an individual mouse, and dos lines indicate the CYP3A4 promoter reporter activity change in individual mouse after following round of treatment. p values are indicated between the two treatment compared by paired t test.
10 hours after the last treatment of each round, the mice were imaged as described above. Uniform regions of interest were drawn around the liver, and total photon flux was analyzed with Living Image 3.2 software (Xenogen). The induction of CYP3A4-luc reporter activity was calculated using the imaging from the same mouse as follows: induction rate=total photon flux (after treatment)/total photon flux (before treatment).

[2] = tested on: hPXR; experiment: liver CYP3A expression in hPXR-tg mice; format: in vivo, mouse; conditions: RIF 10 mg/kg plus test compound 200 mg/kg, 72 h
Protocol: Briefly, mouse liver Cyp3a11 mRNA was analyzed by real-time PCR in hPXR-tg mice treated with vehicle control (Vehicle), RIF (10 mg/kg) or RIF (10 mg/kg) plus test compound (200 mg/kg) for 72 h. Each data point represents the level of Cyp3a11 mRNA (FIG. 3A) or protein (FIG. 3B) in an individual mouse; lines indicate the mean value for 3-7 mice per group.
hPXR-tg mice were generated previously (Xie et al., 2000). Five mice in each group were dosed orally with vehicle control or 10 mg/kg RIF, every 24 h for three days. Eight hours after the last dose, the animals were euthanized by C02 and liver tissues were harvested. A piece of each liver was preserved in RNAlater solution (Invitrogen) at 4° C. for mRNA isolation. The remaining tissue was instantly frozen in liquid nitrogen and stored at −80° C. for total protein extraction. […]

[3] = tested on: primary human hepatocytes (PHHs); experiment: paclitaxel metabolism in primary human hepatocytes; format: cell-based; conditions: 1 μM PTX with 10 μM test compound, 24 and 48 hr
Protocol: FIGS. 1A-1D show representative data for a representative disclosed compound showing that the tested compound modulates the activity of an hPXR agonist in primary human hepatocytes (“PHHs”). […] PHHs were pretreated with DMSO (0.1%), 1.6 μM of rifampicin (RIF), 0.5 μM of paclitaxel (PTX) or 5 μM of PTX, respectively, in the absence and presence of 10 μM of the test compound. After 72 hr, PHHs then received 3.3 μM of midazolam (MDZ) treatment for 4 h. The concentrations of 1′-OH MDZ (MDZ metabolite) in the media of each pretreatment condition were determined using LC/MS/MS as described in the Examples. […] PHHs were also treated with 1 μM of PTX in the absence and presence of 10 μM of the test compound, and then the concentrations of major PTX metabolites, 3-OH PTX (by CYP3A4) and 6α-OH PTX (by CYP2C8), were determined using LC/MS/MS at 24 hr and 48 hr of treatment, respectively. The concentrations of 3-OH PTX and 6α-OH PTX are shown in FIGS. 1B and 1C, respectively.
Midazolam and 1-OH midazolam were from BD Gentest. Midazolam-D4 maleate (internal standard, IS) was from Cerilliant; Paclitaxel and 3′-p-Hydroxypaclitaxel were from Sigma; and 6α-hydroxy Paclitaxel was from Cayman Chemical. 100 μl of reaction medium at each different time point was collected and 200 μl of acetonitrile containing IS was added. […] Calibration and quality control samples were prepared. […]

[4] = tested on: hPXR-tg mice; experiment: loss of righting reflex (LORR) assay in hPXR transgenic mice; format: in vivo, mouse; conditions: RIF 10 mg/kg plus test compound 200 mg/kg every 24 h for three days
Protocol: Loss of righting reflex (LORR) duration was recorded as described in Examples to measure metabolism of the anesthetic ([…]) in hPXR-tg, mice before and after treatment with vehicle, RIF, and RIF plus the test compound as indicated. Each data point represents LORR duration in an individual mouse; lines indicate LORR duration change in individual mouse before and after treatment. P values indicate comparison of values by paired t test.
Mice were intraperitoneally injected with 250 mg/kg of 2,2,2-tribromoethanol, which is metabolically cleared only via mouse CYP3A11. After the mice lost their righting reflex, they were placed on their backs under a heat lamp. The duration of LORR was measured as the time from the start of LORR to recovery (i.e., when mice could right themselves after being placed on their backs twice within 1 min). A baseline LORR duration was established for each mouse at the administered dose of 2,2,2-tribromoethanol. […] The paired Student's t-test was used to compare LORR duration between baseline and after treatment. A P value <0.05 was considered to indicate a significant difference between compared groups.

[5] = tested on: primary human hepatocytes (PHHs); experiment: midazolam metabolism in primary human hepatocytes after hPXR agonist pretreatment; format: cell-based; conditions: PHHs pretreated 72 hr with DMSO, 1.6 μM RIF, 0.5 or 5 μM PTX, with 10 μM test compound; then 3.3 μM MDZ 4 h
Protocol: Midazolam and 1-OH midazolam were from BD Gentest. Midazolam-D4 maleate (internal standard, IS) was from Cerilliant; Paclitaxel and 3′-p-Hydroxypaclitaxel were from Sigma; and 6α-hydroxy Paclitaxel was from Cayman Chemical. 100 μl of reaction medium at each different time point was collected and 200 μl of acetonitrile containing IS was added. This solution was then vigorously mixed for 10 min and centrifuged at 10,000 rpm for 10 min. Calibration and quality control samples were prepared. 5 μl of the samples was injected onto a Waters Acquity UPLC BEH C18 column (2.1×50 mm, 1.7 μm), using a Waters Acquity UPLC system. Chromatographic separation was performed by gradient elution at a constant flow rate of 1 mL/min for 15 min. The gradient consisted of 0.1% formic acid water (mobile phase A) and methanol (mobile phase B). […] Nitrogen was applied as curtain, collision and drying gas at 60 psi. Declustering potentials, entrance potential and collision energy was as follows: 120 V, 12 V and 35 V for MDZ; 70 V, 12 V and 30 V for 1-OH MDZ; and 120 V, 12 V and 37 V for IS.

[6] = tested on: LS 180 cells stably overexpressed hPXR; experiment: sensitization of colon cancer cells to anti-cancer drugs (viability); format: cell-based, human; conditions: absence vs presence of 10 μM test compound, 96 h
Protocol: FIGS. 2A-2D show representative data for a representative disclosed compound showing that the tested compound sensitizes colon cancer cells to representative anti-cancer drugs. […] LS 180 cells stably overexpressed hPXR were treated with serial dilutions of paclitaxel (PTX; see FIG. 2A), docetaxel (TXT; see FIG. 2B), vinblastine (VBL; see FIG. 2C), or vincristine (VCR; see FIG. 2D) in the absence and presence of 10 μM of the test compound as indicated for 96 h. Values of the viability of compound-treated cells were expressed as a percentage of that of DMSO-treated cells, and drug concentration is expressed in a log scale. Data at each point represents mean±SEM from quadruplicate measurements.

COc1ccc(OC)c(-n2nnc(S(=O)(=O)c3ccc(C(C)(C)C)cc3)c2C)c1 [4-((4-(tert-butyl)phenyl)sulfonyl)-1-(2,5-dimethoxyphenyl)-5-methyl-1H-1,2,3-triazole]
RIF-induced expression of the reporter under the control of the CYP3A4 promoter [1]: significantly reduced
hPXR-mediated increase in CYP3A expression (liver Cyp3a11 mRNA, CYP3A protein) [2]: inhibits the hPXR-mediated increase in CYP3A expression
metabolism of PTX to 3-OH PTX (by CYP3A4) [3]: effectively blocked
metabolism of PTX to 6α-OH PTX (by CYP2C8) [3]: effectively blocked
RIF-induced metabolism of the anesthetic, by LORR duration [4]: significantly inhibited
metabolism of MDZ (1′-OH MDZ in the media) [5]: essentially blocked
apparent IC50 for PTX, TXT, VBL, or VCR [6]: significantly higher in the absence of the test compound
